{"source": "patent US10342804B2", "about": "“Steroid compound for use in the treatment of hepatic encephalopathy” (Umecrine Cognition AB, priority 2014, dated 2019)", "key": {"[1]": {"target": "T1, human α1β2γ2L GABAA receptors (Homo sapiens, UniProt P14867+P47870)", "T1 construct": "expressed in transfected cells; host or cells: HEK-293, permanently transfected", "T1 sequence (P14867 28-456)": "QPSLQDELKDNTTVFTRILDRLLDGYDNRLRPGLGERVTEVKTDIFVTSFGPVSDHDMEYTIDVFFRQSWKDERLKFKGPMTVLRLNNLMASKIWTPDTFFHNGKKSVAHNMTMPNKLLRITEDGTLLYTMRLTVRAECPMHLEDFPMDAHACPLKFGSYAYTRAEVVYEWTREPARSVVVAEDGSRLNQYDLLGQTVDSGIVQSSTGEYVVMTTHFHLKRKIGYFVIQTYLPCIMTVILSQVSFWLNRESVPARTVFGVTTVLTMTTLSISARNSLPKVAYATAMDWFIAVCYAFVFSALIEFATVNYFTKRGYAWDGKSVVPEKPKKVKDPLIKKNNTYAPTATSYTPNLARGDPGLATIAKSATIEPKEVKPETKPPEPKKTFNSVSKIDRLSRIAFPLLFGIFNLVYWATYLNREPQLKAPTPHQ", "T1 sequence (P47870 25-512 limits assumed)": "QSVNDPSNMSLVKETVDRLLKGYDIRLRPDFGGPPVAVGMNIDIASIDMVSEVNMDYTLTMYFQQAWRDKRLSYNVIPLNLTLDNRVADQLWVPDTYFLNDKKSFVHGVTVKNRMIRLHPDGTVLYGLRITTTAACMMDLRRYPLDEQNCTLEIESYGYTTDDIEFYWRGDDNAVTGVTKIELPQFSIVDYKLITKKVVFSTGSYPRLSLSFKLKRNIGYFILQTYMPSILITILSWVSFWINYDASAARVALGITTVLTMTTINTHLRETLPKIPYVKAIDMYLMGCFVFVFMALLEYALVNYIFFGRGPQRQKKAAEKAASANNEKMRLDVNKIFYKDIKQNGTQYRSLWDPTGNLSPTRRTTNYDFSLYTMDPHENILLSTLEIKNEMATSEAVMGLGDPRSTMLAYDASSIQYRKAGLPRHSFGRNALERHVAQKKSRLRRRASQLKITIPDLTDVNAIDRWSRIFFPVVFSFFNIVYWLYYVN", "T1 sequence (P18507 40-475 partner)": "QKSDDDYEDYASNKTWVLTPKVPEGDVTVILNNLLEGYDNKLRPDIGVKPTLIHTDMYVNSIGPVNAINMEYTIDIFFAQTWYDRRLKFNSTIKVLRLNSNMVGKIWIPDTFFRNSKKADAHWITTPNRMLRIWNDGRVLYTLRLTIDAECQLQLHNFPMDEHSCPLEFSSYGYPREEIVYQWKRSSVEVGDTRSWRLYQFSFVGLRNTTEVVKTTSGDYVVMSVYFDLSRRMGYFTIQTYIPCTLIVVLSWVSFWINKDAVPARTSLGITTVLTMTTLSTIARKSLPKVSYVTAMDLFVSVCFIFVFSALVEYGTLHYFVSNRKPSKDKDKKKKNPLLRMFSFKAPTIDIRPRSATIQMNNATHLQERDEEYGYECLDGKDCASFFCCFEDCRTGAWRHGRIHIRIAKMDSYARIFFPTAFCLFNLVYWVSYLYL", "experiment": "Whole-cell voltage-clamp electrophysiology, HEK-293 cells expressing α1β2γ2L GABAA receptors", "format": "cell-based", "conditions": "for GAMSA effect: α1β2γ2L, 1 μM GAMSA, 30 μM GABA, AUC", "description": "(§1) For electrophysiology measurements the Dynaflow® system with the Resolve chip was used (Cellectricon, Göteborg, Sweden). HEK-293 cells were permanently transfected with vectors including the human CMV promoter for constitutive expression of the human α5, β3, and γ2L GABAA receptor subunits (α5β3γ2L) or the human α1, β2, and γ2L GABAA receptor subunits (α1β2γ2L). The cell lines used were selected for good reactivity to GABA and to THDOC. Before measurements cells were incubated for 15 min at 37° C. in 95% air+5% CO2 in extracellular solution (EC) containing the following: 137 mM NaCl, 5.0 mM KCl, 1.0 mM CaCl2, 1.2 mM MgCl2, 10 mM HEPES, and 10 mM glucose, 0.1% DMSO pH 7.4. Thereafter, detached cells were added to the EC solution in the Dynaflow chip bath.\n(§2) Whole-cell voltage-clamp recordings were made at room temperature (21-23° C., −17 mV with compensation for liquid junction potential as in Haage et al., 2002; Neher, 1992). Command pulses were generate and data collected by PClamp 9.0 software, DigiData 1322A converter, and AxonPatch 200B (Axon Instruments, Foster City, Calif.). Patch electrodes (2-6 MΩ) were filled with intracellular solution (IC) including: 140 mM Cs-gluconate, 3.0 mM NaCl, 1.2 mM MgCl2, 10 mM HEPES, 1.0 mM EGTA, 2 mM Mg-ATP, 0.1% DMSO, pH 7.2.\n(§3) THDOC and 3α-ethynyl-3β-hydroxyandrostan-17-one oxime were dissolved in dimethyl sulfoxide (DMSO) and thereafter diluted with EC solution to include 0.1% DMSO.\n(§4) Different protocols were used for different electrophysiology measurements. As α1β2γ2L-GABAA receptors in vivo are present within the synapse a condition resembling that situation, a short application (40 ms) of a high GABA concentration (30 μM), was used. Contrary, α5β3γ2L-GABAA receptors are present extrasynaptically, thus the conditions used were long exposures (6 s) to a low GABA concentration (0.3 μM). The EC75 concentration of THDOC was used, i.e. 100 nM with studies of α1β2γ2L and 200 nM when α5β3γ2L expressing cells were evaluated. With both cell types a pre-exposure with THDOC or THDOC plus 3α-ethynyl-3β-hydroxyandrostan-17-one oxime was used before application of GABA.\n(§5) Steroid effects in presence of GABA were normalized to controls in order to avoid the effects of inter- and intracellular variation in the measured parameters, each cell was used as its own control and the area under the curve (AUC) was analyzed."}, "[2]": {"target": "T2, human α5β3γ2L GABAA receptors (Homo sapiens, UniProt P28472+P31644)", "T2 construct": "expressed in transfected cells; host or cells: HEK-293, permanently transfected", "T2 sequence (P31644 32-462)": "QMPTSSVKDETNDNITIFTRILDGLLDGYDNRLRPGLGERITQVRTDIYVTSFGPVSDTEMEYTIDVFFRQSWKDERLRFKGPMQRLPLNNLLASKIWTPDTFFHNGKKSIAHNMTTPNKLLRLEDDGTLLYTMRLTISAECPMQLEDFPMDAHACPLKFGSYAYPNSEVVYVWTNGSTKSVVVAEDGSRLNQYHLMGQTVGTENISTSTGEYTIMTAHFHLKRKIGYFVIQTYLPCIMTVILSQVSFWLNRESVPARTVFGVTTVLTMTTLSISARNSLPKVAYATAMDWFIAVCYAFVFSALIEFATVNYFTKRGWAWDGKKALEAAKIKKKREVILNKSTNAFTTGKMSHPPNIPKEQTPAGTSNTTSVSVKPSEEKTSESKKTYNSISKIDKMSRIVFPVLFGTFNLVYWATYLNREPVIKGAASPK", "T2 sequence (P28472 26-473)": "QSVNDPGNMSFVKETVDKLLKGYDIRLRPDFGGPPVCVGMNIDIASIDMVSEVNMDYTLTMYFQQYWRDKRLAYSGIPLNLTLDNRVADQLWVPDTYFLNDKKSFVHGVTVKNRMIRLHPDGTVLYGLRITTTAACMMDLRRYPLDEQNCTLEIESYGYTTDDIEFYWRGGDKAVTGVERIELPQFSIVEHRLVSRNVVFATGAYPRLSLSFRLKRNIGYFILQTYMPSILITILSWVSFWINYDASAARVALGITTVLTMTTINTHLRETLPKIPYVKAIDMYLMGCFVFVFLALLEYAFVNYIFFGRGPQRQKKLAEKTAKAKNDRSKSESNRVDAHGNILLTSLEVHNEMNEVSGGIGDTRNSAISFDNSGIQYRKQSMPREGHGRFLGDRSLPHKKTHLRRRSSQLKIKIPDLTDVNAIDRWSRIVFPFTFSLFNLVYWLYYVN", "T2 sequence (P18507 40-475 partner)": "as the sequence (P18507 40-475 partner) above", "experiment": "Whole-cell voltage-clamp electrophysiology, HEK-293 cells expressing α5β3γ2L GABAA receptors", "format": "cell-based", "conditions": "for GAMSA effect: α5β3γ2L, 1 μM GAMSA, 0.3 μM GABA, AUC", "description": "as §1, §2, §3, §4, §5"}, "[3]": {"tested_on": "receptors, ion channels and enzymes, including all major classes of neurotransmitter receptors", "experiment": "Binding selectivity screen, 113 targets (Perkin Elmer customized screen)", "conditions": "10 μM, duplicate; neurotransmitter related receptors, steroid receptors, peptide receptors", "description": "The binding of 3α-ethynyl-3β-hydroxyandrostan-17-one oxime was determined for receptors, ion channels and enzymes, including all major classes of neurotransmitter receptors. In total 113 targets were tested in duplicate with 3α-ethynyl-3β-hydroxyandrostan-17-one oxime at 10 μM (Perkin Elmer, Customized screen). Binding activity was defined as greater than or equal to 50% inhibition of ligand binding."}, "PCS rats [4]": {"tested_on": "PCS rats", "experiment": "Morris water maze memory test, PCS rats (Example 9)", "format": "in vivo, rat", "description": "(§6) Male Wistar rats (220-240 g) were anesthetized with isoflurane, and an end-to side porta-caval anastomosis was performed as described by Lee and Fisher (Surgery, 1961, 50, 668-672).\n(§7) Rats that were subjected to the porta-caval anastomosis procedure are herein referred to as “PCS rats”.\n3α-ethynyl-3β-hydroxyandrostan-17-one oxime in sesame oil was administered by subcutaneous injections in the back of the rats, once daily. Two different sets of experiments were performed in hyperammonemic rats. In the first set four groups of rats were used: 1) control rats injected with vehicle; 2) hyperammonemic rats injected with vehicle; 3) control rats injected with 20 mg/Kg of 3α-ethynyl-3β-hydroxyandrostan-17-one oxime and 4) hyperammonemic rats injected with 20 mg/Kg of 3α-ethynyl-3β-hydroxyandrostan-17-one oxime. […]\nThe test was carried out as described by Monfort et al. (European Journal of Neuroscience, 2007, 25, 2103-2111) using a circular pool (160 cm diameter, 40 cm height) arbitrarily divided into four quadrants. […] The time needed to find the hidden platform was recorded manually and used as a measure of learning of the task.\nSpatial memory was assessed 24 hours later by removing the platform and measuring the time spent by the rat in the quadrant where the platform was."}, "PCS rats [5]": {"tested_on": "PCS rats", "experiment": "Circadian rhythms of spontaneous locomotor activity (actimeter), PCS rats (Example 11)", "format": "in vivo, rat", "description": "as §6, §7\n3α-ethynyl-3β-hydroxyandrostan-17-one oxime in sesame oil was administered by subcutaneous injections in the back of the rats, once daily. Two different sets of experiments were performed in hyperammonemic rats. In the first set four groups of rats were used: 1) control rats injected with vehicle; 2) hyperammonemic rats injected with vehicle; 3) control rats injected with 20 mg/Kg of 3α-ethynyl-3β-hydroxyandrostan-17-one oxime and 4) hyperammonemic rats injected with 20 mg/Kg of 3α-ethynyl-3β-hydroxyandrostan-17-one oxime.\nFor the experiments using PCS rats, the following groups of rats were used: 1) Sham rats injected with vehicle; 2) PCS rats injected with vehicle; 3-4) PCS rats injected with 0.7 or 2.5 mg/Kg of 3α-ethynyl-3β-hydroxyandrostan-17-one oxime. The number of rats used in each experiment is either shown in the corresponding Figure or given in the description of the corresponding Figure.\nMotor activity was measured using an actimeter (Med Associates, S t. Albans, Vt.). Rats were placed individually in an open-field activity chamber (43×43×31 cm), and motor activity was recorded continuously for 14 days in conditions of light-dark (L:D), 12 h:12 h. Data were recorded at intervals of 5 minutes. Motor activity was detected by arrays of infrared motion detectors, placed in three directions, x, y and z. One ambulatory count is recorded by the apparatus when the rat interrupts three consecutive infrared detectors, in x or y position. A vertical count is recorded when rat interrupts infrared detectors in z position. The software allows measuring different parameter of motor activity, such as ambulatory counts or vertical counts (Ahabrach et al. Journal of Neuroscience Research, 2010, 88, 1605-14)."}, "[6]": {"conditions": "HEK293, read-out: Inhibition of the THDOC enhancement of GABA"}, "[7]": {"conditions": "no THDOC (GABA sole activator), listed as GAMSA"}}, "data": [{"smiles": "C#C[C@]1(O)CC[C@@]2(C)C(CC[C@@H]3[C@@H]2CC[C@]2(C)/C(=N\\O)CC[C@@H]32)C1", "note": "(stereo partly drawn) [3α-ethynyl-3β-hydroxyandrostan-17-one oxime]", "values": [{"measurement": "inhibition at 1 µM", "setting": "[1]; [6]", "value": "29 ± 4.7", "unit": "%"}, {"measurement": "GAMSA effect", "setting": "[1]; 100 nM THDOC", "value": "−29 ± 4.7", "unit": "%"}, {"measurement": "GAMSA effect", "setting": "[1]; no THDOC (GABA sole activator)", "value": "−3.1±1.7", "unit": "%"}, {"measurement": "GAMSA effect", "setting": "[1]; [7]", "value": "−3.1 ± 1.7", "unit": "%"}, {"measurement": "inhibition at 1 µM", "setting": "[2]; [6]", "value": "49 ± 4.7", "unit": "%"}, {"measurement": "GAMSA effect", "setting": "[2]; 200 nM THDOC", "value": "−49 ± 4.7", "unit": "%"}, {"measurement": "GAMSA effect", "setting": "[2]; no THDOC (GABA sole activator)", "value": "−3.8±1.5", "unit": "%"}, {"measurement": "GAMSA effect", "setting": "[2]; [7]", "value": "−3.8 ± 1.5", "unit": "%"}, {"measurement": "Binding activity (greater than or equal to 50% inhibition of ligand binding)", "setting": "[3]", "value": "did not show binding activity"}, {"measurement": "Percentage of time spent in the correct quadrant, Morris water maze memory test", "setting": "PCS rats [4]; 0.7 mg/kg", "value": "34±4", "unit": "%"}, {"measurement": "Percentage of time spent in the correct quadrant, Morris water maze memory test", "setting": "PCS rats [4]; 2.5 mg/kg", "value": "39±3", "unit": "%"}, {"measurement": "Motor activity (ambulatory counts) during the night", "setting": "PCS rats [5]; 0.7 mg/kg", "value": "2652±275", "unit": "counts"}, {"measurement": "Night/day ratio of ambulatory activity", "setting": "PCS rats [5]; 0.7 mg/kg", "value": "1.7±0.2"}, {"measurement": "Night/day ratio of vertical activity", "setting": "PCS rats [5]; 0.7 mg/kg", "value": "2.1±0.4"}, {"measurement": "Vertical activity during the day", "setting": "PCS rats [5]; 0.7 mg/kg", "value": "339±47", "unit": "counts"}, {"measurement": "Vertical activity during the night", "setting": "PCS rats [5]; 0.7 mg/kg", "value": "664±121", "unit": "counts"}, {"measurement": "Motor activity (ambulatory counts) during the night", "setting": "PCS rats [5]; 2.5 mg/kg", "value": "2235±170", "unit": "counts"}, {"measurement": "Night/day ratio of ambulatory activity", "setting": "PCS rats [5]; 2.5 mg/kg", "value": "1.6±0.3"}, {"measurement": "Night/day ratio of vertical activity", "setting": "PCS rats [5]; 2.5 mg/kg", "value": "1.9±0.6"}, {"measurement": "Vertical activity during the day", "setting": "PCS rats [5]; 2.5 mg/kg", "value": "424±44", "unit": "counts"}, {"measurement": "Vertical activity during the night", "setting": "PCS rats [5]; 2.5 mg/kg", "value": "695±185", "unit": "counts"}]}]}
